These results are taken from patent US20120230991A1, “METHODS AND COMPOUNDS FOR ENHANCING ANTI-CANCER THERAPY” (priority 2008, published 2012).

One may read the IC50 as the concentration that gives 50% inhibition. Read a high IC50 as lower potency.

Holding throughout (assay type): cell-based
For assay [1], the system named is REH cells. The assay can be described thus: Flow cytometry of apoptotic and dead cells (YO-PRO-1 / propidium iodide), REH cells. Particulars: REH shMer4A, shMer4B vs shControl, 48 hours. An excerpt:
Apoptotic and dead cells were identified by flow cytometric analysis of cells stained with YO-PRO®-1 and propidium iodide: A) representative flow cytometry profiles. The percentage of apoptotic cells is indicated in the lower-right quadrant. The combined percentage of cells in the two upper quadrants indicates the fraction of dead cells.
Apoptotic and dead cells were identified by flow cytometric analysis of cells stained with YO-PRO®-1 and propidium iodide: A) representative flow cytometry profiles. The percentage of apoptotic cells is indicated in the lower-right quadrant. The combined percentage of cells in the two upper quadrants indicates the fraction of dead cells. B) mean values and standard errors derived from 3 independent experiments. Results were tested for significance using two-way repeated measures ANOVA and Bonferroni posttests to compare shControl and Mer knockdown cells at equivalent drug concentrations. Significant differences in apoptotic cell populations are indicated by asterisks (* p<0.01, ** p<0.001). Significant differences in the number of dead cells were also observed († p<0.01, ‡‡ p<0.001). No significant differences between wild type and shControl cells were observed.
In general terms: In flow cytometry, cells or beads pass a laser one at a time.

The test system of assay [2] is 697 Human B-ALL Cell Lines. Nature of the assay: MTT assay, chemosensitivity of 697 cells (wild type, shControl, Mer knockdown), 48 hours. As for the experimental part:
Inhibition of Mer expression results in increased chemosensitivity in 697 cells. […] IC50 values were determined by non-linear regression of data from at least three independent experiments performed in triplicate, as shown in Table 1.
On the technique in general: Tetrazolium dyes change colour on reduction, which living cells bring about.

Assay [3] deals with REH cells. Nature of the assay: MTT assay, REH cells (wild type, shControl, Mer knockdown) treated with methotrexate for 48 hours. Particulars: REH shMer4A, shMer4B vs shControl. An excerpt: Inhibition of Mer expression results in increased chemosensitivity of REH cells. […] Statistical differences versus shControl are indicated by non-overlapping confidence intervals (95% CI). No significant difference between wild type and shControl was observed.

As to `CN(Cc1cnc2nc(N)nc(N)c2n1)c1ccc(C(=O)N[C@@H](CCC(=O)O)C(=O)O)cc1` [MTX, methotrexate], the “apoptotic cell death with Mer knockdown” value in assay [1] is “increased apoptotic cell death”. For the same compound, the IC50 turned out to be 27.5 nM in assay [2] (697 Wild Type cells), 27.8 nM in assay [2] (697 shControl cells), 12.3 nM in assay [2] (697 shMer1A (Mer knockdown) cells) and 11.8 nM in assay [2] (697 shMer1B (Mer knockdown) cells). Also, the “IC50 values in Mer knockdown cells in comparison to shControl cells” value in assay [3] is “significantly lower IC50 values”.
